Laboratory results from US8686044B2, “Amide derivative, pest control agent containing the amide derivative, and use of the amide derivative” (Mitsui Chemicals Agro, Inc., priority 2008, dated 2014).

Tests used:
Format in all cases: in vivo
Plutella xylostella = assay: Pesticidal test against Plutella xylostella (cabbage leaf dip); conditions: foliar, 144 h, concentration 1 ppm, 2-stage larvae, examined after 6 days, 25° C., read-out: pesticidal rate
Summary of the method: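 Second-stage larvae (5 per group, two replicates) were released onto air-dried cabbage leaf discs that had been immersed for 30 seconds in compound solution at a set concentration. Mortality was scored after 6 days at 25° C.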

Blattella germanica = assay: Pesticidal test against Blattella germanica (petri dish dry film); conditions: 24 h, concentration 100 ppm, female adults, examined after 1 day, 25° C., read-out: pesticidal rate
Protocol: Pesticidal Test against Blattella germanica
1 ml of an acetone solution in which a test compound had been prepared at a predetermined concentration was added dropwise to a petri dish having a diameter of 9 cm, and air-dried, and then the female adults of Blattella germanica were released and the petri dish was capped. They were left to stand in a thermostatic chamber at 25° C., and the numbers of the living pests and the dead pests were examined after 1 day. The test was carried out with five larvae per group in two replicates.

Spodoptera litura = assay: Pesticidal test against Spodoptera litura (cabbage leaf dip); conditions: foliar, 144 h, concentration 1 ppm, 2-stage larvae, examined after 6 days, 25° C., read-out: pesticidal rate
Summary of the method: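 Cabbage leaf pieces dipped 30 seconds in compound solution at a predetermined concentration and air-dried, then offered to second-stage larvae, five per group in two replicates. Held at 25° C. Living and dead larvae counted after 6 days.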

Musca domestica = assay: Pesticidal test against Musca domestica (petri dish dry film); conditions: 24 h, concentration 100 ppm, female adults, examined after 1 day, 25° C., read-out: pesticidal rate
Summary of the method: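 Female adult houseflies were confined at 25° C in capped 9 cm petri dishes coated with an air-dried film from 1 ml acetone solution of compound (predetermined concentration). Mortality was scored 1 day later, two replicates of five per group.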

Laodelphax striatellus = assay: Pesticidal test against Laodelphax striatellus (rice seedling spray); conditions: 144 h, concentration 100 ppm, 3-stage larvae, examined after 6 days, 25° C., read-out: pesticidal rate
Summary of the method: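 Rice seedlings sprayed with 2.5 ml acetone solution of compound at a predetermined concentration, air-dried, then infested with third-stage Laodelphax striatellus larvae in capped water-containing tubes at 25 °C. Living and dead insects counted after 6 days; ten larvae per group, two replicates.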

N#Cc1ccc(C(=O)Nc2c(Br)cc(C(F)(C(F)(F)F)C(F)(F)F)cc2C(F)(F)F)c(F)c1NC(=O)c1ccccc1 [1-1925]
≥ 70%: pest or weed control at 1 ppm (Plutella xylostella) | pest or weed control at 100 ppm (Blattella germanica) | pest or weed control at 1 ppm (Spodoptera litura) | pest or weed control at 100 ppm (Musca domestica)

O=C(Nc1c(Br)cc(C(F)(C(F)(F)F)C(F)(F)C(F)(F)F)cc1Br)c1cccc(NC(=O)c2ccccc2F)c1 (stereo not drawn) [6-39]
≥ 70%: pest or weed control at 1 ppm (Plutella xylostella) | pest or weed control at 100 ppm (Blattella germanica) | pest or weed control at 1 ppm (Spodoptera litura) | pest or weed control at 100 ppm (Laodelphax striatellus) | pest or weed control at 100 ppm (Musca domestica)

O=C(Nc1c(Br)cc(C(F)(C(F)(F)F)C(F)(F)C(F)(F)F)cc1Br)c1cccc(NC(=O)c2c(F)cccc2F)c1 (stereo not drawn) [6-47]
≥ 70%: pest or weed control at 1 ppm (Plutella xylostella) | pest or weed control at 100 ppm (Blattella germanica) | pest or weed control at 1 ppm (Spodoptera litura) | pest or weed control at 100 ppm (Laodelphax striatellus) | pest or weed control at 100 ppm (Musca domestica)

O=C(Nc1cccc(C(=O)Nc2c(Br)cc(C(F)(C(F)(F)F)C(F)(F)C(F)(F)F)cc2C(F)(F)F)c1)c1ccccc1 (stereo not drawn) [6-346]
≥ 70%: pest or weed control at 1 ppm (Plutella xylostella) | pest or weed control at 100 ppm (Blattella germanica) | pest or weed control at 1 ppm (Spodoptera litura) | pest or weed control at 100 ppm (Laodelphax striatellus) | pest or weed control at 100 ppm (Musca domestica)

O=C(Nc1c(Br)cc(C(F)(C(F)(F)F)C(F)(F)C(F)(F)F)cc1C(F)(F)F)c1cccc(NC(=O)c2c(F)cccc2F)c1 (stereo not drawn) [6-368]
≥ 70%: pest or weed control at 1 ppm (Plutella xylostella) | pest or weed control at 100 ppm (Blattella germanica) | pest or weed control at 1 ppm (Spodoptera litura) | pest or weed control at 100 ppm (Laodelphax striatellus) | pest or weed control at 100 ppm (Musca domestica)

O=C(Nc1cccc(C(=O)Nc2c(Br)cc(C(F)(C(F)(F)F)C(F)(F)F)cc2Br)c1F)c1ccccc1F [6-1105]
≥ 70%: pest or weed control at 1 ppm (Plutella xylostella) | pest or weed control at 100 ppm (Blattella germanica) | pest or weed control at 1 ppm (Spodoptera litura) | pest or weed control at 100 ppm (Musca domestica)

O=C(Nc1cccc(C(=O)Nc2c(Br)cc(C(F)(C(F)(F)F)C(F)(F)F)cc2Br)c1F)c1ccc(F)cc1 [6-1107]
≥ 70%: pest or weed control at 1 ppm (Plutella xylostella) | pest or weed control at 100 ppm (Blattella germanica) | pest or weed control at 1 ppm (Spodoptera litura) | pest or weed control at 100 ppm (Laodelphax striatellus) | pest or weed control at 100 ppm (Musca domestica)

N#Cc1cccc(C(=O)Nc2cccc(C(=O)Nc3c(Br)cc(C(F)(C(F)(F)F)C(F)(F)F)cc3Br)c2F)c1 [6-1124]
≥ 70%: pest or weed control at 1 ppm (Plutella xylostella) | pest or weed control at 100 ppm (Blattella germanica) | pest or weed control at 1 ppm (Spodoptera litura) | pest or weed control at 100 ppm (Laodelphax striatellus) | pest or weed control at 100 ppm (Musca domestica)

N#Cc1ccc(C(=O)Nc2cccc(C(=O)Nc3c(Br)cc(C(F)(C(F)(F)F)C(F)(F)F)cc3Br)c2F)cc1 [6-1125]
≥ 70%: pest or weed control at 1 ppm (Plutella xylostella) | pest or weed control at 100 ppm (Blattella germanica) | pest or weed control at 1 ppm (Spodoptera litura) | pest or weed control at 100 ppm (Musca domestica)

O=C(Nc1c(Br)cc(C(F)(C(F)(F)F)C(F)(F)F)cc1Br)c1cccc(NC(=O)c2c(F)cccc2F)c1F [6-1126]
≥ 70%: pest or weed control at 1 ppm (Plutella xylostella) | pest or weed control at 100 ppm (Blattella germanica) | pest or weed control at 1 ppm (Spodoptera litura) | pest or weed control at 100 ppm (Laodelphax striatellus) | pest or weed control at 100 ppm (Musca domestica)

O=C(Nc1cccc(C(=O)Nc2c(Br)cc(C(F)(C(F)(F)F)C(F)(F)F)cc2Br)c1F)c1ccc(Cl)nc1 [6-1147]
≥ 70%: pest or weed control at 1 ppm (Plutella xylostella) | pest or weed control at 100 ppm (Blattella germanica) | pest or weed control at 1 ppm (Spodoptera litura) | pest or weed control at 100 ppm (Laodelphax striatellus) | pest or weed control at 100 ppm (Musca domestica)

O=C(Nc1cccc(C(=O)Nc2c(Br)cc(C(F)(C(F)(F)F)C(F)(F)C(F)(F)F)cc2Br)c1F)c1cccc(F)c1 (stereo not drawn) [6-1184]
≥ 70%: pest or weed control at 1 ppm (Plutella xylostella) | pest or weed control at 100 ppm (Blattella germanica) | pest or weed control at 1 ppm (Spodoptera litura) | pest or weed control at 100 ppm (Laodelphax striatellus) | pest or weed control at 100 ppm (Musca domestica)

O=C(Nc1c(Br)cc(C(F)(C(F)(F)F)C(F)(F)C(F)(F)F)cc1Br)c1cccc(NC(=O)c2c(F)cccc2F)c1F (stereo not drawn) [6-1204]
≥ 70%: pest or weed control at 1 ppm (Plutella xylostella) | pest or weed control at 100 ppm (Blattella germanica) | pest or weed control at 1 ppm (Spodoptera litura) | pest or weed control at 100 ppm (Laodelphax striatellus) | pest or weed control at 100 ppm (Musca domestica)

O=C(Nc1cccc(C(=O)Nc2c(Br)cc(C(F)(C(F)(F)F)C(F)(F)C(F)(F)F)cc2Br)c1F)c1cccnc1Cl (stereo not drawn) [6-1218]
≥ 70%: pest or weed control at 1 ppm (Plutella xylostella) | pest or weed control at 100 ppm (Blattella germanica) | pest or weed control at 1 ppm (Spodoptera litura) | pest or weed control at 100 ppm (Laodelphax striatellus) | pest or weed control at 100 ppm (Musca domestica)

N#Cc1cccc(C(=O)Nc2cccc(C(=O)Nc3c(I)cc(C(F)(C(F)(F)F)C(F)(F)F)cc3I)c2F)c1 [6-1280]
≥ 70%: pest or weed control at 1 ppm (Plutella xylostella) | pest or weed control at 100 ppm (Blattella germanica) | pest or weed control at 1 ppm (Spodoptera litura) | pest or weed control at 100 ppm (Laodelphax striatellus)

O=C(Nc1cccc(C(=O)Nc2c(I)cc(C(F)(C(F)(F)F)C(F)(F)F)cc2I)c1F)c1cccnc1Cl [6-1296]
≥ 70%: pest or weed control at 1 ppm (Plutella xylostella) | pest or weed control at 100 ppm (Blattella germanica) | pest or weed control at 1 ppm (Spodoptera litura) | pest or weed control at 100 ppm (Laodelphax striatellus)

O=C(Nc1cccc(C(=O)Nc2c(I)cc(C(F)(C(F)(F)F)C(F)(F)C(F)(F)F)cc2I)c1F)c1ccccc1 (stereo not drawn) [6-1338]
≥ 70%: pest or weed control at 1 ppm (Plutella xylostella) | pest or weed control at 100 ppm (Blattella germanica) | pest or weed control at 1 ppm (Spodoptera litura) | pest or weed control at 100 ppm (Laodelphax striatellus) | pest or weed control at 100 ppm (Musca domestica)

O=C(Nc1cccc(C(=O)Nc2c(Br)cc(C(F)(C(F)(F)F)C(F)(F)F)cc2C(F)(F)F)c1F)c1ccccc1F [6-1575]
≥ 70%: pest or weed control at 1 ppm (Plutella xylostella) | pest or weed control at 100 ppm (Blattella germanica) | pest or weed control at 1 ppm (Spodoptera litura) | pest or weed control at 100 ppm (Laodelphax striatellus) | pest or weed control at 100 ppm (Musca domestica)

O=C(Nc1cccc(C(=O)Nc2c(Br)cc(C(F)(C(F)(F)F)C(F)(F)F)cc2C(F)(F)F)c1F)c1cccnc1Cl [6-1610]
≥ 70%: pest or weed control at 1 ppm (Plutella xylostella) | pest or weed control at 100 ppm (Blattella germanica) | pest or weed control at 1 ppm (Spodoptera litura) | pest or weed control at 100 ppm (Laodelphax striatellus)

O=C(Nc1cccc(C(=O)Nc2c(Br)cc(C(F)(C(F)(F)F)C(F)(F)F)cc2C(F)(F)F)c1F)c1ccc(Cl)nc1 [6-1617]
≥ 70%: pest or weed control at 1 ppm (Plutella xylostella) | pest or weed control at 100 ppm (Blattella germanica) | pest or weed control at 1 ppm (Spodoptera litura) | pest or weed control at 100 ppm (Laodelphax striatellus) | pest or weed control at 100 ppm (Musca domestica)

O=C(Nc1cccc(C(=O)Nc2c(I)cc(C(F)(C(F)(F)F)C(F)(F)F)cc2C(F)(F)F)c1F)c1ccccc1F [6-1731]
≥ 70%: pest or weed control at 1 ppm (Plutella xylostella) | pest or weed control at 100 ppm (Blattella germanica) | pest or weed control at 1 ppm (Spodoptera litura) | pest or weed control at 100 ppm (Laodelphax striatellus) | pest or weed control at 100 ppm (Musca domestica)

O=C(Nc1c(I)cc(C(F)(C(F)(F)F)C(F)(F)F)cc1C(F)(F)F)c1cccc(NC(=O)c2c(F)cccc2F)c1F [6-1752]
≥ 70%: pest or weed control at 1 ppm (Plutella xylostella) | pest or weed control at 100 ppm (Blattella germanica) | pest or weed control at 1 ppm (Spodoptera litura) | pest or weed control at 100 ppm (Laodelphax striatellus) | pest or weed control at 100 ppm (Musca domestica)

O=C(Nc1cccc(C(=O)Nc2c(I)cc(C(F)(C(F)(F)F)C(F)(F)F)cc2C(F)(F)F)c1F)c1ccc(Cl)nc1 [6-1773]
≥ 70%: pest or weed control at 1 ppm (Plutella xylostella) | pest or weed control at 100 ppm (Blattella germanica) | pest or weed control at 1 ppm (Spodoptera litura) | pest or weed control at 100 ppm (Laodelphax striatellus) | pest or weed control at 100 ppm (Musca domestica)

O=C(Nc1cccc(C(=O)Nc2c(Br)cc(C(F)(C(F)(F)F)C(F)(F)C(F)(F)F)cc2Br)c1)c1cccc(F)c1 (stereo not drawn) [6-5905]
≥ 70%: pest or weed control at 1 ppm (Plutella xylostella) | pest or weed control at 100 ppm (Blattella germanica) | pest or weed control at 1 ppm (Spodoptera litura) | pest or weed control at 100 ppm (Laodelphax striatellus) | pest or weed control at 100 ppm (Musca domestica)

CN(C(=O)c1cccnc1Cl)c1cccc(C(=O)Nc2c(Br)cc(C(F)(C(F)(F)F)C(F)(F)C(F)(F)F)cc2Br)c1 (stereo not drawn) [7-57]
≥ 70%: pest or weed control at 1 ppm (Plutella xylostella) | pest or weed control at 100 ppm (Blattella germanica) | pest or weed control at 1 ppm (Spodoptera litura) | pest or weed control at 100 ppm (Laodelphax striatellus) | pest or weed control at 100 ppm (Musca domestica)

CN(C(=O)c1cccnc1Br)c1cccc(C(=O)Nc2c(Br)cc(C(F)(C(F)(F)F)C(F)(F)F)cc2C(F)(F)F)c1 [7-305]
≥ 70%: pest or weed control at 1 ppm (Plutella xylostella) | pest or weed control at 100 ppm (Blattella germanica) | pest or weed control at 1 ppm (Spodoptera litura) | pest or weed control at 100 ppm (Laodelphax striatellus)

CN(C(=O)c1ccccc1F)c1cccc(C(=O)Nc2c(Br)cc(C(F)(C(F)(F)F)C(F)(F)C(F)(F)F)cc2C(F)(F)F)c1 (stereo not drawn) [7-347]
≥ 70%: pest or weed control at 1 ppm (Plutella xylostella) | pest or weed control at 100 ppm (Blattella germanica) | pest or weed control at 1 ppm (Spodoptera litura)

CN(C(=O)c1ccc(F)cc1)c1cccc(C(=O)Nc2c(Br)cc(C(F)(C(F)(F)F)C(F)(F)C(F)(F)F)cc2C(F)(F)F)c1 (stereo not drawn) [7-349]
≥ 70%: pest or weed control at 1 ppm (Plutella xylostella) | pest or weed control at 100 ppm (Blattella germanica) | pest or weed control at 1 ppm (Spodoptera litura) | pest or weed control at 100 ppm (Musca domestica)

CN(C(=O)c1ccc(C#N)cc1)c1cccc(C(=O)Nc2c(Br)cc(C(F)(C(F)(F)F)C(F)(F)C(F)(F)F)cc2C(F)(F)F)c1 (stereo not drawn) [7-367]
≥ 70%: pest or weed control at 1 ppm (Plutella xylostella) | pest or weed control at 100 ppm (Blattella germanica) | pest or weed control at 1 ppm (Spodoptera litura) | pest or weed control at 100 ppm (Musca domestica)

CN(C(=O)c1ccccc1F)c1cccc(C(=O)Nc2c(I)cc(C(F)(C(F)(F)F)C(F)(F)F)cc2I)c1F [7-1261]
≥ 70%: pest or weed control at 1 ppm (Plutella xylostella) | pest or weed control at 100 ppm (Blattella germanica) | pest or weed control at 1 ppm (Spodoptera litura) | pest or weed control at 100 ppm (Laodelphax striatellus)
